Experimental data from patent US20260224563A1, “CRYSTALLINE FORMS OF 6-(3-((5-CHLORO-2-METHOXYPYRIDINE)-3-SULFONAMIDO)-2,6-DIFLUOROPHENYL)-N-METHYLIMIDAZO[1,5-A]PYRAZINE-1-CARBOXAMIDE AND METHODS FOR USING THE SAME” (HIBERCELL, INC., priority 2023, published 2026).
Where two headings read alike, the source gives them in different places.

Assay: Pharmacokinetics of HC-7366 in male and female beagle dogs following IV and oral administration of HC-7366-K (plasma and urine, LC-MS/MS)
Format: in vivo, Beagle Dog
Set-up: AUC(0-t)/D: unit not given here
Conditions: for AUC(0-inf) / AUC(0-t) / FPO / AUC(0-t)/D / t1/2: mean n = 3; for AUC(0-t): t = 48 h; for FPO: based on AUC(0-inf); for Cmax: suspension of Form III; for bioavailability: read-out: Mean oral bioavailability (FPO); for half-life: read-out: terminal half-life (t1/2) (converted); for Emesis: at 1 hour post dose
Protocol: The objective of this study was to characterize the pharmacokinetics of HC-7366 in male and female beagle dogs following intravenous (IV) and oral (PO) administration of the potassium salt of the compound of formula (I), which may be referred to in this Example as HC-7366-K.
The IV solution formulation of HC-7366-K contained “5% (v/v) DMSO and 95% (v/v) Captisol (20% w/v) in PBS (pH 7.4)”, and was administered […] dose at 0.5 mg free acid/kg.
The PO suspension formulation of HC-7366-K is a suspension of Form III of the potassium salt of the compound of formula (I) (see Example 6) and contained “0.5% (w/v) methylcellulose (400 cp) in water”, and was administered orally at 1 mg free acid/kg, 10 mg free acid/kg, 50 mg free acid/kg, 150 mg free acid/kg, respectively.
After dosing, blood samples were collected at various time points. Plasma and urine was harvested and analysed by LC-MS/MS to characterize the PK profiles of HC-7366.
HC-7366-K was stored at room temperature. The compound used in this study was HC-7366-K. All doses, concentrations and supporting data are expressed in terms of free acid. The molecular weight conversion factor from HC-7366-K to free acid was 1.11.
HC-7366-K was formulated as an IV solution at a target dose level of 0.5 mg/mL in “5% (v/v) DMSO and 95% (v/v) Captisol (20% w/v) in PBS (pH 7.4)”.
HC-7366-K was formulated as a PO suspension of Form III of the potassium salt of the compound of formula (I) (see Example 6) at a target dose concentration of 0.25 mg/mL, 2.5 mg/mL, 12.5 mg/mL and 37.5 mg/mL in “0.5% (w/v) methylcellulose (aq.) (400 cp) in water” respectively.
The dose was administered via intravenous and oral gavage at the target dose volume of 1, and 4 mL/kg, respectively. All animals had free access to water, were fasted overnight prior to dosing and fed approximately 2 hours after dosing. The IV dose and PO dose at 1 mg/kg were administered to the same dogs as a cross-over design. The PO dose was administered 10 days after the IV dose. The PO doses at 10, 50 and 150 mg/kg were administered to individual animals.
Following IV administration, blood samples (ca 0.3 mL) were collected from the venepuncture of peripheral veins except the dosing vein. Blood samples were collected pre dose and at 0.083 h, […], 0.5 h, 1 h, 2 h, 4 h, 8 h, […], 30 h, and 48 h post dose.
Following PO administration, blood samples (ca 0.3 mL) were collected from the venepuncture of peripheral veins. Blood samples were collected pre dose and at 0.25 h, 0.5 h, 1 h, 2 h, 4 h, 8 h, 24 h, 30 h, and 48 h post dose.
Blood samples were collected into tubes containing K2EDTA as anticoagulant. The acceptable time ranges for blood collection are shown below. […]. Samples were stored in a freezer set to maintain a temperature at or below −80° C. prior to analysis. The residual blood cells were discarded.
Urine samples were collected on cold packs into clean bottles and the cold packs were checked during the day and at each sampling interval. At the end of the collection interval, the volume of urine was recorded and then each sample was well mixed and maintained on wet ice throughout processing and then stored frozen at […]75±15° C. until analysis.
The plasma and urine concentration of HC-7366 was determined by protein precipitation with acetonitrile followed by liquid chromatography with mass spectrometric detection (LC MS/MS). Sample preparation was conducted by adding 50 uL plasma or 50 uL urine to 200 uL of acetonitrile containing dexamethasone as an analytical internal standard. There was no formal validation data to support the assay.
Calibration standards were prepared in male, female beagle dog plasma or urine using HC-7366 Free acid. Calibration standards were freshly prepared on the day of analysis.
Parameters were estimated using Phoenix (WinNonlin) pharmacokinetic software version 6.1.0 using a non-compartmental approach consistent with IV and PO routes of administration. […]

[1] = Female Beagle dog, IV 0.5 mg/kg, plasma
[2] = Female Beagle dog, PO 1 mg/kg, plasma
[3] = Female Beagle dog, PO 10 mg/kg, plasma
[4] = Female Beagle dog, PO 50 mg/kg, plasma
[5] = Female Beagle dog, PO 150 mg/kg
[6] = Female Beagle dog, PO 150 mg/kg, plasma
[7] = dog, plasma, female beagle dogs, oral 1 mg/kg
[8] = dog, Male Beagle dogs, IV 0.5 mg/kg, HC-7366 in plasma
[9] = dog, Male Beagle dogs, PO 1 mg/kg, HC-7366 in plasma
[10] = dog, Male Beagle dogs, PO 10 mg/kg, HC-7366 in plasma
[11] = dog, Male Beagle dogs, PO 50 mg/kg, HC-7366 in plasma
[12] = dog, Male Beagle dogs, PO 150 mg/kg, HC-7366 in plasma
[13] = plasma, female beagle dog, oral 10 mg/kg
[14] = plasma, female beagle dog, oral 50 mg/kg
[15] = plasma, female beagle dog, oral 150 mg/kg
[16] = plasma, male beagle dog, oral 1 mg/kg
[17] = plasma, male beagle dog, oral 10 mg/kg
[18] = plasma, male beagle dog, oral 50 mg/kg
[19] = plasma, male beagle dog, oral 150 mg/kg

Compound: CNC(=O)c1ncn2cc(-c3c(F)ccc(NS(=O)(=O)c4cc(Cl)cnc4OC)c3F)ncc12 [HC-7366-K, 6-(3-((5-chloro-2-methoxypyridine)-3-sulfonamido)-2,6-difluorophenyl)-N-methylimidazo[1,5-a]pyrazine-1-carboxamide]
- AUC(0-inf) [1]: 85.7 µg·h/mL
- AUC(0-t) [1]: 81.1 µg·h/mL
- FPO (Female Beagle dog, PO 1 mg/kg): 99%
- AUC(0-t)/D (Female Beagle dog, PO 1 mg/kg): 156383
- AUC(0-inf) [2]: 170 µg·h/mL
- t1/2 [2]: 13 h
- AUC(0-t) [2]: 156 µg·h/mL
- FPO (Female Beagle dog, PO 10 mg/kg): 84%
- AUC(0-t)/D (Female Beagle dog, PO 10 mg/kg): 126414
- AUC(0-inf) [3]: 1440 µg·h/mL
- t1/2 [3]: 14 h
- Tmax (Female Beagle dog, PO 10 mg/kg, range n = 3): 0.50 to 1.0 h
- AUC(0-t) [3]: 1260 µg·h/mL
- FPO (Female Beagle dog, PO 50 mg/kg): 63%
- AUC(0-t)/D (Female Beagle dog, PO 50 mg/kg): 97510
- AUC(0-inf) [4]: 5370 µg·h/mL
- t1/2 [4]: 14 h
- AUC(0-t) [4]: 4880 µg·h/mL
- FPO [5]: 32%
- AUC(0-t)/D [5]: 49629
- AUC(0-inf) [6]: 8260 µg·h/mL
- t1/2 [6]: 14 h
- AUC(0-t) [6]: 7440 µg·h/mL
- AUC(0-t)/D (Male Beagle dogs, IV 0.5 mg/kg): 155094
- FPO (Male Beagle dogs, PO 1 mg/kg): 73%
- AUC(0-t)/D (Male Beagle dogs, PO 1 mg/kg): 116097
- t1/2 (Male Beagle dogs, PO 10 mg/kg, HC-7366 in plasma): 15 h
- FPO (Male Beagle dogs, PO 10 mg/kg): 83%
- AUC(0-t)/D (Male Beagle dogs, PO 10 mg/kg): 126074
- t1/2 (Male Beagle dogs, PO 50 mg/kg, HC-7366 in plasma): 17 h
- FPO (Male Beagle dogs, PO 50 mg/kg): 58%
- AUC(0-t)/D (Male Beagle dogs, PO 50 mg/kg): 85797
- t1/2 (Male Beagle dogs, PO 150 mg/kg, HC-7366 in plasma): 11 h
- FPO (Male Beagle dogs, PO 150 mg/kg): 21%
- AUC(0-t)/D (Male Beagle dogs, PO 150 mg/kg): 34480
- Tmax (Male Beagle dogs, PO 150 mg/kg, range n = 3): 1.0 to 4.0 h
- Tmax (dog, plasma, Male Beagle dogs, PO 1 mg/kg, range n = 3, read-out: tmax): 0.25 to 0.5 h
- Tmax (dog, plasma, Male Beagle dogs, PO 10 mg/kg, range n = 3, read-out: tmax): 0.5 h
- Tmax (dog, plasma, Male Beagle dogs, PO 50 mg/kg, range n = 3, read-out: tmax): 0.5 to 1 h
- clearance (dog, plasma, female Beagle dogs, intravenous 0.5 mg/kg, read-out: Clearance (CL)): 5.84 mL/h/kg
- Vd (dog, plasma, female Beagle dogs, intravenous 0.5 mg/kg, read-out: volume of distribution at steady state (Vss)): 0.084 L/kg
- Cmax [7]: 10.7 µg/mL
- bioavailability [7]: 99%
- half-life [7]: 13 h
- AUC(0-inf) [8]: 85.6 µg·h/mL
- AUC(0-t) [8]: 77.5 µg·h/mL
- AUC(0-inf) [9]: 123 µg·h/mL
- AUC(0-t) [9]: 116 µg·h/mL
- AUC(0-inf) [10]: 1420 µg·h/mL
- AUC(0-t) [10]: 1260 µg·h/mL
- AUC(0-inf) [11]: 4930 µg·h/mL
- AUC(0-t) [11]: 4290 µg·h/mL
- AUC(0-inf) [12]: 5470 µg·h/mL
- AUC(0-t) [12]: 5170 µg·h/mL
- half-life (dog, female Beagle dogs, intravenous 0.5 mg/kg, plasma HC-7366, mean n=3): 12 h
- half-life (dog, male beagle dogs, intravenous 0.5 mg/kg, plasma HC-7366, mean n=3): 14 h
- Emesis (female beagle dog, oral 150 mg/kg): Emesis was observed
- Emesis (male beagle dog, oral 150 mg/kg): Emesis was observed
- gender differences in the PK parameters (male versus female beagle dogs): no notable gender differences
- dose proportionality of AUC (AUC/D values) (oral, between 1 and 50 mg/kg, beagle dogs): generally increased in proportional to dose level
- Tmax (plasma, Female Beagle dog, PO 1 mg/kg, range n = 3, read-out: tmax): 1 to 2 h
- Tmax (plasma, Female Beagle dog, PO 50 mg/kg, range n = 3, read-out: tmax): 2 to 4 h
- Tmax (plasma, Female Beagle dog, PO 150 mg/kg, range n = 3, read-out: tmax): 0.5 to 1 h
- Cmax [13]: 87 µg/mL
- Tmax (plasma, female beagle dog, oral 10 mg/kg, three animals, read-out: time post dose at which Cmax was observed (Tmax)): 0.5 to 1 h
- bioavailability [13]: 84%
- half-life [13]: 14 h
- Cmax [14]: 246 µg/mL
- bioavailability [14]: 63%
- half-life [14]: 14 h
- Cmax [15]: 350 µg/mL
- bioavailability [15]: 32%
- half-life [15]: 14 h
- Cmax [16]: 10.2 µg/mL
- bioavailability [16]: 73%
- half-life [16]: 12 h
- Cmax [17]: 94.3 µg/mL
- bioavailability [17]: 83%
- half-life [17]: 15 h
- Cmax [18]: 227 µg/mL
- bioavailability [18]: 58%
- half-life [18]: 17 h
- Cmax [19]: 280 µg/mL
- Tmax (plasma, male beagle dog, oral 150 mg/kg, three animals, read-out: time post dose at which Cmax was observed (Tmax)): 1 to 4 h
- bioavailability [19]: 21%
- half-life [19]: 11 h
